From ChEMBL document CHEMBL1201862, “PubChem BioAssay data set” (2004)
Values belong to the compound of their own block, whether it stands above or below them. Active and inactive are the calls of the source.

How the values were obtained:
[1] = target: Induced myeloid leukemia cell differentiation protein Mcl-1 (Homo sapiens, UniProt Q07820); format: functional
Hexokinase HKDC1 = target: T1, Hexokinase HKDC1 (Homo sapiens, UniProt Q2TB90); assay: inhibition of HKDC1 glucose phosphorylation – biochemical, W721R variant, dose response (AID 504729); format: functional
T1 sequence (Q2TB90 whole entry): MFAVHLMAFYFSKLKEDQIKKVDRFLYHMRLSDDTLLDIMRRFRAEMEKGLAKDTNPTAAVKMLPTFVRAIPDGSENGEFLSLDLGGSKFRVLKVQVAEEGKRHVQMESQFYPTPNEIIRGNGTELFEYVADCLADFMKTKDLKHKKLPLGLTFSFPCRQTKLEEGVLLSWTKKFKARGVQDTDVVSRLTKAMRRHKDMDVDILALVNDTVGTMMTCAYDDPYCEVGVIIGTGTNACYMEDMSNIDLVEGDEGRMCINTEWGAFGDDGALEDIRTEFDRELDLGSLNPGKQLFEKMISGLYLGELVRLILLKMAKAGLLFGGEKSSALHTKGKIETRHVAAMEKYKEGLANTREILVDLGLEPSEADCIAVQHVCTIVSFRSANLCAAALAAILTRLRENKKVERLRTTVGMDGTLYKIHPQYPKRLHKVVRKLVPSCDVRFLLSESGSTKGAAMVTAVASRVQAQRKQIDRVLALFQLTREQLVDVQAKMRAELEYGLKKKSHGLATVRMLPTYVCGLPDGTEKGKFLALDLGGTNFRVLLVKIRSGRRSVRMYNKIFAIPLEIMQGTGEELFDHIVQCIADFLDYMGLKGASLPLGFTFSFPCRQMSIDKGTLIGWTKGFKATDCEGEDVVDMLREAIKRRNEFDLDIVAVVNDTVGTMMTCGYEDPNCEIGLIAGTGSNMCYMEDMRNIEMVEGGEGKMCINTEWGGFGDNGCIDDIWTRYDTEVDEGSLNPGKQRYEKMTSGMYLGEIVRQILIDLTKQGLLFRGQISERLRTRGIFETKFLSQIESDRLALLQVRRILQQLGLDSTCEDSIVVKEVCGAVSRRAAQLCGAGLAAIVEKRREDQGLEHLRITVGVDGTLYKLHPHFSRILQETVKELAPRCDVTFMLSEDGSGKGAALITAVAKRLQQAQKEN

[2] = target: T2, Heat shock factor protein 1 (Mus musculus, UniProt P38532); assay: decrease of HSF1-responsive luciferase luminescence – cell-based, NIH3T3, dose retest, confirmation (AID 2382); format: functional;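 also: NIH3T3 fibroblasts with HSF1-driven luciferase reporter stressed by proteasome inhibitor MG132; luminescence from HSF1-driven luciferase expression after 8 hours of MG132 stress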
T2 sequence (P38532 whole entry): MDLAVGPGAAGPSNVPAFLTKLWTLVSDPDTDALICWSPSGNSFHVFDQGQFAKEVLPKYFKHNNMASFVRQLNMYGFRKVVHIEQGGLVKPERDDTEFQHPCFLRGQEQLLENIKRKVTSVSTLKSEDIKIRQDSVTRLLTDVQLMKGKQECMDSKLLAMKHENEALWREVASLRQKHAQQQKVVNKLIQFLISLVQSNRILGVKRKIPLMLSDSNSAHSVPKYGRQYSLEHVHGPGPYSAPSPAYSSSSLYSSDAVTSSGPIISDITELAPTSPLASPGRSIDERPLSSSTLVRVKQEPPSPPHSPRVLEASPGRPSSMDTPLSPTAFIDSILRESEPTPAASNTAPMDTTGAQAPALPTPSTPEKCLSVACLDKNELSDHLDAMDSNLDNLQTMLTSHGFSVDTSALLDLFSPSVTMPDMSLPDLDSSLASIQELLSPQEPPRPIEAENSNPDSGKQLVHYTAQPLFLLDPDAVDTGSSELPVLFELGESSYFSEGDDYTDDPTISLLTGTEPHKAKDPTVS

[3] = target: G-protein coupled receptor 35 (Homo sapiens, UniProt Q9HC97); assay: inhibition of zaprinast-stimulated GPR35 beta-arrestin translocation – imaging, U2OS, beta-arrestin-GFP, zaprinast agonist, primary screen (AID 2058); format: functional;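 also: antagonist potency meaning inhibition of agonist-induced arrestin redistribution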
Chain of G-protein coupled receptor 35 (Q9HC97 whole entry, the tested form may be a part): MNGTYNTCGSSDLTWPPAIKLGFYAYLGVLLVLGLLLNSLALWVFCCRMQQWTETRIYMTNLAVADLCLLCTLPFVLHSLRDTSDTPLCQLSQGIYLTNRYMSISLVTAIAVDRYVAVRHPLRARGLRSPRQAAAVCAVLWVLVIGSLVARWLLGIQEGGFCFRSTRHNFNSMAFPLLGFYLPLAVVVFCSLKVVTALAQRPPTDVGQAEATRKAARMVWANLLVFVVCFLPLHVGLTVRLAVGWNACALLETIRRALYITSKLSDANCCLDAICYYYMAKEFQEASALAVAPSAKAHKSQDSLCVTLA

[4] = target: T3, Carboxy-terminal domain RNA polymerase II polypeptide A small phosphatase 1 (Homo sapiens, UniProt Q9GZU7); assay: CTDSP1 inhibitors, concentration-response, biochemical, absorbance readout, ultra-high-throughput screen actives (AID 540297); format: functional
T3 sequence (Q9GZU7 whole entry): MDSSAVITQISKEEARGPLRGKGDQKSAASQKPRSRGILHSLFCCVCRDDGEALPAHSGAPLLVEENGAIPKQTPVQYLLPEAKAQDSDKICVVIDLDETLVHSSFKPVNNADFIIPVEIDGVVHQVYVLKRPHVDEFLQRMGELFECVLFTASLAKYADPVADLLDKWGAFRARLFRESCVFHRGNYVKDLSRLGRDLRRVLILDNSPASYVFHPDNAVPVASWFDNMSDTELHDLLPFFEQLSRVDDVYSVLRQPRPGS

Estrogen receptor beta [5] = target: T4, Estrogen receptor beta (Homo sapiens, UniProt Q92731);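 also: recombinant ER-beta bound to coactivator SRC1 peptide in presence of estradiol agonist; inhibitors block coactivator peptide binding and lower the FRET signal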
T4 sequence (Q92731 whole entry): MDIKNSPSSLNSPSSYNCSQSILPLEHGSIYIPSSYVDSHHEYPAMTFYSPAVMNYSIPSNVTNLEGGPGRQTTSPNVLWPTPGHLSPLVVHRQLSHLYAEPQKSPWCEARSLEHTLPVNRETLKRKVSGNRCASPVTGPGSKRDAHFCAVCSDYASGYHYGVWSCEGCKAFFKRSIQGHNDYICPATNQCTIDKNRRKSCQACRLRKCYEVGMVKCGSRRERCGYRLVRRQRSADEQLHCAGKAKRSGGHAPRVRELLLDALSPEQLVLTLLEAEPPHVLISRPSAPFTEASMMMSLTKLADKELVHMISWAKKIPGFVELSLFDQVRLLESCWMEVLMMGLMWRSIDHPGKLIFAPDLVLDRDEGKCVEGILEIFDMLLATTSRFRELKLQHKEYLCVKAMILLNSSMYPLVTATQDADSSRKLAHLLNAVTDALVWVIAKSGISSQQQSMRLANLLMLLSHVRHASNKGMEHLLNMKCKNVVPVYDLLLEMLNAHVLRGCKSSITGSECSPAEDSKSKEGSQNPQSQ

Estrogen receptor beta [6] = target: T4, Estrogen receptor beta; assay: blockers of SRC-3 recruitment to ERβ – biochemical, ELISA, streptavidin-HRP readout, orthogonal assay, confirmation (AID 1060)
Bcl-2-like protein 10 = target: T5, Bcl-2-like protein 10 (Homo sapiens, UniProt Q9HD36); assay: Bcl-B/TR3 peptide binding disruption – biochemical, fluorescence polarization, FITC-TR3 peptide, selectivity assay for Bfl-1 inhibitor project, primary screen (AID 748);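 also: fluorescence polarization from a fluorescein-labelled TR3 peptide binding purified Bcl-B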
T5 sequence (Q9HD36 whole entry): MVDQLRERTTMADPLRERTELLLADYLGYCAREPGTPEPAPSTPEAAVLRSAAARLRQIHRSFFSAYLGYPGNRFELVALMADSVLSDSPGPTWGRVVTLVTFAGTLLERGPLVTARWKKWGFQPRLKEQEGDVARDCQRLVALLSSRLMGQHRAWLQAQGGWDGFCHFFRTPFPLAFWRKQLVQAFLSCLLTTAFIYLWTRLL

Tumor necrosis factor = Tumor necrosis factor (Homo sapiens, UniProt P01375); assay: analog potency on TNFa NF-kB signaling – cell-based, revised, SAR follow-up (AID 2337); format: functional
Chain of Tumor necrosis factor (P01375 whole entry, the tested form may be a part): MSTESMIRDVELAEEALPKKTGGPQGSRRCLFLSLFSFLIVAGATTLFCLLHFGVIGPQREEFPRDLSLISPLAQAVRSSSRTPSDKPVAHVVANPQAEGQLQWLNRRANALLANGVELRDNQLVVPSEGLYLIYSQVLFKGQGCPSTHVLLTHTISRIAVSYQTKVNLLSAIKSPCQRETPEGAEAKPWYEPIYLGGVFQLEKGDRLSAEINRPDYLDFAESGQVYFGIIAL

[7] = target: T6, Nucleotide-binding oligomerization domain-containing protein 1 (Homo sapiens, UniProt Q9Y239); assay: blockers of NOD1 pathway activity – revised, SAR follow-up (AID 2333); format: functional
T6 sequence (Q9Y239 whole entry): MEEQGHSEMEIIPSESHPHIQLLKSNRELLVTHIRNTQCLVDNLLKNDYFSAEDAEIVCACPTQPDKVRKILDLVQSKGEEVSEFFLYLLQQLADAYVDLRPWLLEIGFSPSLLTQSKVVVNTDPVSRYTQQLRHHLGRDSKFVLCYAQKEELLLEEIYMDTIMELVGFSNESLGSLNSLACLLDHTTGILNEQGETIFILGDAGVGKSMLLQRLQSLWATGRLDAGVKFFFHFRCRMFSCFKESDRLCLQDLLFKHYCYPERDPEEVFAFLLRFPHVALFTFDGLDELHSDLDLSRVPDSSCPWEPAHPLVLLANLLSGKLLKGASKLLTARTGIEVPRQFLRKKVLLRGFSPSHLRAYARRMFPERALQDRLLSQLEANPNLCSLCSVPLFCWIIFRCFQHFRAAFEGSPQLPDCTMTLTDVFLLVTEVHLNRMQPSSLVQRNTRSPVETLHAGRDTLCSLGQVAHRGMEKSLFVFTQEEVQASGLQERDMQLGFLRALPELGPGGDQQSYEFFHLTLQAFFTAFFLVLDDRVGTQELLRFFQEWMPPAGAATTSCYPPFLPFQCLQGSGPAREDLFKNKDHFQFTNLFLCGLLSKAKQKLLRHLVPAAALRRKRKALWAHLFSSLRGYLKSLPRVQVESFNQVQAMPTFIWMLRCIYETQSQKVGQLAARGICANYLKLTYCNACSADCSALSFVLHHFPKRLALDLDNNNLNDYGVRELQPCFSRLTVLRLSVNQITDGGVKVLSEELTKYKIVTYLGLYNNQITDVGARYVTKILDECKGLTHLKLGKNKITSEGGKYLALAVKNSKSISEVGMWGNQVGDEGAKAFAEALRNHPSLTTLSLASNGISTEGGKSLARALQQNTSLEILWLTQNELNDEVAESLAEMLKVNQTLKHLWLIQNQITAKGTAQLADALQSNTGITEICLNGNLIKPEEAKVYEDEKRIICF

[8] = target: Nucleotide-binding oligomerization domain-containing protein 2 (Homo sapiens, UniProt Q9HC29); assay: PubChem AID 2334; format: functional
Chain of Nucleotide-binding oligomerization domain-containing protein 2 (Q9HC29 whole entry, the tested form may be a part): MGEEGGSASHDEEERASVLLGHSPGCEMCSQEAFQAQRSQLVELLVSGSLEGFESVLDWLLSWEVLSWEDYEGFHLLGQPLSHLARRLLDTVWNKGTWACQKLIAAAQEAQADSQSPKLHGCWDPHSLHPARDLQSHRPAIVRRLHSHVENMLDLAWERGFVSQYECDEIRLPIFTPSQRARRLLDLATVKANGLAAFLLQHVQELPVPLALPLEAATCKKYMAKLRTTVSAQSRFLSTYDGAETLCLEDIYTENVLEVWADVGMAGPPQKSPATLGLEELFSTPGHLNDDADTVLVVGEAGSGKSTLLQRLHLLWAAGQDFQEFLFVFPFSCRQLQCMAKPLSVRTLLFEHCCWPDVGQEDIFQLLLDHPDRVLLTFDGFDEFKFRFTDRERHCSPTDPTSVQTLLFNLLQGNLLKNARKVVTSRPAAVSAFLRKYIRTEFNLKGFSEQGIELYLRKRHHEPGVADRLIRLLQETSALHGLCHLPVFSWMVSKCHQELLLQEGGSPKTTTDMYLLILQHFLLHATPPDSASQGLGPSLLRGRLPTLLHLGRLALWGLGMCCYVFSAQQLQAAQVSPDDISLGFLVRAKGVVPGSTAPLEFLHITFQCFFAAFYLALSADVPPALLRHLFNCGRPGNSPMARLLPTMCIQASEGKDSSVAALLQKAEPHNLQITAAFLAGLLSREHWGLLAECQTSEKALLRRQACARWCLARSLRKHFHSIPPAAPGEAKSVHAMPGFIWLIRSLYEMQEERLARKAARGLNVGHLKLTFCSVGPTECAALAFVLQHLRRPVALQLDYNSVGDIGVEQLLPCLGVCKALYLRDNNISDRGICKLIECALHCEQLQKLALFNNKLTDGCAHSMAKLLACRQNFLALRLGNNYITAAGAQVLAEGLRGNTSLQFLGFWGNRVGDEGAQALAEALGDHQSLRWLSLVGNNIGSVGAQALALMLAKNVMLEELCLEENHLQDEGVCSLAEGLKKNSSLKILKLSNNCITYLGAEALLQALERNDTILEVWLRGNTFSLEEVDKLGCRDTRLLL

HEK293 = assay: cells; details: Homo sapiens;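 also: cells exposed to compound for 14 hours overnight before viability readout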

Chain of Induced myeloid leukemia cell differentiation protein Mcl-1 (Q07820 whole entry): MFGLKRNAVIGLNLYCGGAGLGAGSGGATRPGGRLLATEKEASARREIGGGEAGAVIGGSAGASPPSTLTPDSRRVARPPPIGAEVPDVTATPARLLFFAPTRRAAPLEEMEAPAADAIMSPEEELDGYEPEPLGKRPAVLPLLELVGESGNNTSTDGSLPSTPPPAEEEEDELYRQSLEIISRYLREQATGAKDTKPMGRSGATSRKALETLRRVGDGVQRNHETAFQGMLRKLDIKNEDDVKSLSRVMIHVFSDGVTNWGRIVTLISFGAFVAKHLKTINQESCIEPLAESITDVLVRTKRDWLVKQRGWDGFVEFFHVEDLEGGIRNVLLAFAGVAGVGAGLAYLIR

IC50 [1]: 7.31 µM (not active) | IC50 (Hexokinase HKDC1): 17.2 µM (active)
SMILES: CCn1cc(C(=O)NCc2ccc3c(c2)OCO3)c2cc(OC)c(OC)cc2c1=O

EC50 [2]: > 195 µM (not active) | IC50 [3]: 1.78 µM (active)
SMILES: CC(=O)c1ccc(NC(=O)C(C)n2nc(-c3ccccc3)c3cc(Cl)ccc32)cc1 (stereo not drawn)

IC50 (Hexokinase HKDC1): 7.58 µM (active)
SMILES: COc1ccc2cc(CCNC(=O)c3ccc(S(=O)(=O)N4CCCC4)cc3)c(O)nc2c1

Further lines, the compound ahead of its results:

SMILES: O=C(c1cc2c(s1)CCC2)N1CCN(c2ccccc2)CC1
IC50 [4]: 22.4 µM (active) | IC50 (Estrogen receptor beta [5]): 3.87 µM (active) | IC50 (Estrogen receptor beta [6]): > 50 µM (not active) | IC50 (Bcl-2-like protein 10): 36.3 µM (active)

SMILES: O=C(Nc1ccc(Cl)cc1)c1ccc(CCN2CCc3ccccc3C2)cc1
IC50 (Tumor necrosis factor): > 20 µM (inactive) | IC50 [7]: > 20 µM (inactive) | IC50 [8]: > 20 µM (inactive) | IC50 (HEK293): > 20 µM (inactive)
